Results reported in PMC3092815 (Proteins, 2011).

Key:
[1] = target: T1, C. perfringens PepcA (archaeal-type phosphoenolpyruvate carboxylase) (Clostridium perfringens, UniProt Q8XLE8); assay: biochemical
[2] = target: T1, C. perfringens PepcA (archaeal-type phosphoenolpyruvate carboxylase)

Molecule	Ki [1] [µM]	Km [2] [µM]
N[C@@H](CC(=O)O)C(=O)O [aspartate]	200	–
Mg^++.PEP	–	60
